Results on 1 compound are retold here after patent publication US20200148937A1, “INHIBITING HYDROCARBON HYDRATE AGGLOMERATION” (COMMONWEALTH SCIENTIFIC AND INDUSTRIAL RESEARCH ORGANISATION, priority 2017, published 2020).

The data set in a line: X-ray diffraction of the gas hydrates formed. In kind it is physicochemical. Particulars: systems 1-3; combination of structure I and structure II hydrate in all three systems. The text has this:
FIG. 17(a) illustrates the X-ray diffraction pattern of the gas hydrates formed in systems 1-3.
The diffraction studies indicate that regardless of the nature of the AA used the XRD pattern of the solids formed are very similar indicating essentially the same hydrate mixtures are formed in each of systems 1-3. In short, there is a combination of structure I and structure II hydrate formed in all three systems considered.

With `Cc1c(C)c2c(c(C)c1OC(=O)CCC(=O)O)CCC(C)(CCCC(C)CCCC(C)CCCC(C)CCCC(C)C)O2` (stereo not shown) [tocopherol succinate], the “effect on structure of the hydrate formed (XRD pattern)” value is “does not alter the structure of the hydrate formed”.
